Measurements as given in ChEMBL document CHEMBL4616720 (J Med Chem, 2020).

Columns and labels:
HCT-116 = test: Antiproliferative activity against human HCT116 cells assessed as reduction in cell growth measured after 48 hrs by CCK8 assay; type: functional, cell-based; details: HCT-116, 48 h
[1] = target: T1, Peptide deformylase, mitochondrial (Homo sapiens, UniProt Q9HBH1); test: Inhibition of human PDF expressed in Escherichia coli BL21 pLysS using formyl-Met-Ala-His-Ala peptide as substrate measured after 1 hr by fluorescamine-based fluorescence assay
T1 sequence (Q9HBH1 whole entry): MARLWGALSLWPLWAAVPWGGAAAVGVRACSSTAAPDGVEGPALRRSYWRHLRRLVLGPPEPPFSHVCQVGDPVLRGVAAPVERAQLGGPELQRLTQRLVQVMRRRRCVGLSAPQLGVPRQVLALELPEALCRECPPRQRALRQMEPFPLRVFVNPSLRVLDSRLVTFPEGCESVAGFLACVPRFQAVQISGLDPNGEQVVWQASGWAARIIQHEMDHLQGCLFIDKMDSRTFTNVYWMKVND

MCF7 = test: Antiproliferative activity against human MCF7 cells assessed as reduction in cell growth measured after 48 hrs by CCK8 assay; type: functional, cell-based; details: MCF7, 48 h
SJSA-1 = test: Antiproliferative activity against human SJSA1 cells assessed as reduction in cell growth measured after 48 hrs by CCK8 assay; type: functional, cell-based; details: SJSA-1, 48 h
HL-60 = test: Antiproliferative activity against human HL60 cells assessed as reduction in cell growth measured after 48 hrs by CCK8 assay; type: functional, cell-based; details: HL-60, 48 h
A549 = test: Antiproliferative activity against human A549 cells assessed as reduction in cell growth measured after 48 hrs by CCK8 assay; type: functional, cell-based; details: A549, 48 h
MCF-10A = test: Cytotoxicity against human MCF10A cells assessed as reduction in cell growth measured after 48 hrs by CCK8 assay; type: cell-based
[2] = target: T2, Protein deacetylase HDAC6 (Homo sapiens, UniProt Q9UBN7); test: Inhibition of HDAC6 (unknown origin) using Boc-Lys(Ac)-pNA as substrate preincubated for 20 mins followed by substrate addition and further incubated for 90 mins by fluorescence assay
T2 sequence (Q9UBN7 whole entry): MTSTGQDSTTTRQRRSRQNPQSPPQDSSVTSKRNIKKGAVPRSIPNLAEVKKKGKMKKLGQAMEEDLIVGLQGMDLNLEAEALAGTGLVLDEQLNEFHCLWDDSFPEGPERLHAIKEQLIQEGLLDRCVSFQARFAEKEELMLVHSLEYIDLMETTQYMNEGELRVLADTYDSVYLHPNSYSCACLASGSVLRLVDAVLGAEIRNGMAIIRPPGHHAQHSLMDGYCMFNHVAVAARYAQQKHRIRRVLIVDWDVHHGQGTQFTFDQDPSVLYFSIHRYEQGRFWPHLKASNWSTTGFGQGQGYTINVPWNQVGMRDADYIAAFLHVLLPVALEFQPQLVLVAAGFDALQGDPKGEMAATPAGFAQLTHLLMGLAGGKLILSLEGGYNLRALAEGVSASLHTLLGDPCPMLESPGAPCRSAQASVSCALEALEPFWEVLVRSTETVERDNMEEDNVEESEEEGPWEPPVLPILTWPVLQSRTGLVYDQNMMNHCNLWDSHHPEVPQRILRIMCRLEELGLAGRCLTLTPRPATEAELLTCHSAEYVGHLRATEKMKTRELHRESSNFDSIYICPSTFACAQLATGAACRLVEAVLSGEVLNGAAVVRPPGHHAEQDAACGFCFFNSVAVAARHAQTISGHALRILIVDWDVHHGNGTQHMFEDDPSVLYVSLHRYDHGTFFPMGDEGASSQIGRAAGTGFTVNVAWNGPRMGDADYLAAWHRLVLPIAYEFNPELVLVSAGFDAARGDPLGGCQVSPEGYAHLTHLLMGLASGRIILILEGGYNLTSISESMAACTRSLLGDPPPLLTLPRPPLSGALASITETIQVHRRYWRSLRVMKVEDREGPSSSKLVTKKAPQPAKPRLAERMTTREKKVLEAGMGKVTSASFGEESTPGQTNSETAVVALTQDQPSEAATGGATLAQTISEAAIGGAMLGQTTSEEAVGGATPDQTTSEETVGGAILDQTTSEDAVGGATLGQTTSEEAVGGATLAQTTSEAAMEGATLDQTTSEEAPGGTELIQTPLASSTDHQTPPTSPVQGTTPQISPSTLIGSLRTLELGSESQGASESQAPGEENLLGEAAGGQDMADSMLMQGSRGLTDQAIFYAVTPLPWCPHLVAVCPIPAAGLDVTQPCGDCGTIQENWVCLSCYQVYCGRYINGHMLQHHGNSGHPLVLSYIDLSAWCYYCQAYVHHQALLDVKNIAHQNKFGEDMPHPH

Histone deacetylase 1 [3] = target: T3, Histone deacetylase 1 (Homo sapiens, UniProt Q13547); test: Inhibition of HDAC1 (unknown origin) at 10 uM using Boc-Lys(Ac)-pNA as substrate preincubated for 20 mins followed by substrate addition and further incubated for 90 mins by fluorescence assay relative to control
[4] = target: T4, Protein deacetylase HDAC6 (Homo sapiens) (UniProt Q9UBN7); test: Inhibition of HDAC6 (unknown origin) at 10 uM using Boc-Lys(Ac)-pNA as substrate preincubated for 20 mins followed by substrate addition and further incubated for 90 mins by fluorescence assay relative to control
T4 sequence (whole entry): T2 sequence (Q9UBN7 whole entry)

Histone deacetylase 1 [5] = target: T3, Histone deacetylase 1; test: Inhibition of HDAC1 (unknown origin) using Boc-Lys(Ac)-pNA as substrate preincubated for 20 mins followed by substrate addition and further incubated for 90 mins by fluorescence assay

T3 sequence (Q13547 whole entry): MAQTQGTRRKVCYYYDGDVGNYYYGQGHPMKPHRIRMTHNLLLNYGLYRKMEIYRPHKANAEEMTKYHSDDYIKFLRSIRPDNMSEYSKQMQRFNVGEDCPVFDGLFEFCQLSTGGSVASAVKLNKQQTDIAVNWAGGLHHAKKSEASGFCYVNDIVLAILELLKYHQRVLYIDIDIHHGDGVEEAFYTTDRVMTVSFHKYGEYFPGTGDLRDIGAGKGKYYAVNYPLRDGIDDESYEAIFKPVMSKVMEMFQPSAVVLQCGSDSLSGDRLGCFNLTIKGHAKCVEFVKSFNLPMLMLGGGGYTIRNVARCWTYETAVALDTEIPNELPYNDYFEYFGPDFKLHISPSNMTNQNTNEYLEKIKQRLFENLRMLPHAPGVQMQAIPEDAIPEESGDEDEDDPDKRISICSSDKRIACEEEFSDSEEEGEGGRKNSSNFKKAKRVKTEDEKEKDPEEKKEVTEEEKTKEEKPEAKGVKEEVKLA

Row | IC50 (HCT-116) [µM] | IC50 [1] [µM] | Compound | other results
1 | 29.1 | 0.00299 | Cc1csc(NC(=O)[C@@H]2CC3(CC3)CN2C(=O)[C@@H](CC(=O)NO)CC2CCCC2)n1 | –
2 | 18.7 | 0.00278 | Cc1cnc(NC(=O)[C@@H]2CC3(CC3)CN2C(=O)[C@@H](CC(=O)NO)CC2CCCC2)s1 | –
3 | 2.87 | 0.00548 | O=C(C[C@@H](CC1CCCC1)C(=O)N1CC2(CC2)C[C@H]1c1nc(-c2ccc(Br)cc2)no1)NO | IC50 (MCF7): 3.56 µM; IC50 (SJSA-1): 2.56 µM; IC50 (HL-60): 2.17 µM; IC50 (A549): 2.61 µM; IC50 (MCF-10A): 21.7 µM
4 | > 40 | 0.00894 | Cc1cnc(NC(=O)[C@@H]2CCCN2C(=O)[C@@H](CC(=O)NO)CC2CCCC2)s1 | –
5 | > 40 | 0.00874 | O=C(C[C@@H](CC1CCCC1)C(=O)N1CC2(CC2)C[C@H]1C(=O)Nc1nccs1)NO | –
6 | 11.2 | 0.00358 | Cc1ccc(NC(=O)[C@@H]2CC3(CC3)CN2C(=O)[C@@H](CC(=O)NO)CC2CCCC2)cc1 | –
7 | 24.5 | 0.00701 | O=C(C[C@@H](CC1CCCC1)C(=O)N1CC2(CC2)C[C@H]1C(=O)Nc1ccc(F)cc1C(F)(F)F)NO | –
8 | > 40 | 0.0131 | O=C(C[C@@H](CC1CCCC1)C(=O)N1CC2(CC2)C[C@H]1C(=O)Nc1cccnn1)NO | –
9 | 4.11 | 0.00719 | O=C(C[C@@H](CC1CCCC1)C(=O)N1CC2(CC2)C[C@H]1c1nc(-c2ccc(C(F)(F)F)cc2)no1)NO | IC50 (MCF7): 5.79 µM; IC50 (SJSA-1): 2.95 µM; IC50 (HL-60): 3.06 µM; IC50 (A549): 3.45 µM; IC50 (MCF-10A): 22.4 µM
10 | 7.78 | 0.00926 | Cc1ccc(-c2noc([C@@H]3CC4(CC4)CN3C(=O)[C@@H](CC(=O)NO)CC3CCCC3)n2)cc1 | IC50 (MCF7): 9.89 µM; IC50 (SJSA-1): 5.35 µM; IC50 (HL-60): 5.35 µM; IC50 (A549): 8.69 µM; IC50 (MCF-10A): 29.8 µM
11 | > 40 | 0.00501 | O=C(C[C@@H](CC1CCCC1)C(=O)N1CC2(CC2)C[C@H]1c1nc(-c2ccc(F)cn2)no1)NO | –
12 | 2.31 | 0.00881 | CCc1ccc(-c2noc([C@@H]3CC4(CC4)CN3C(=O)[C@@H](CC(=O)NO)CC3CCCC3)n2)cc1 | IC50 (MCF7): 3.95 µM; IC50 (SJSA-1): 2.82 µM; IC50 (HL-60): 1.88 µM; IC50 (A549): 2.43 µM; IC50 (MCF-10A): 19.9 µM
13 | > 40 | 0.00587 | O=C(C[C@@H](CC1CCCC1)C(=O)N1CC2(CC2)C[C@H]1C(=O)Nc1cnccn1)NO | –

More lines, now with the values behind:

Row | Compound | IC50 (HCT-116) [µM] | IC50 [1] [µM] | other results
14 | CCCC[C@H](CC(=O)NO)C(=O)N1CC2(CC2)C[C@H]1C(=O)Nc1ncc(C)s1 | > 40 | 0.00942 | –
15 | O=C(C[C@@H](CC1CCCC1)C(=O)N1CCC[C@H]1C(=O)Nc1ccc(F)cn1)NO | > 40 | 0.0109 | –
16 | O=C(C[C@@H](CC1CCCC1)C(=O)N1CC2(CC2)C[C@H]1C(=O)Nc1ccc(Br)cc1)NO | 5.35 | 0.00612 | –
17 | O=C(C[C@@H](CC1CCCC1)C(=O)N1CC2(CC2)C[C@H]1c1nc(-c2ccc(C(F)(F)F)cc2Cl)no1)NO | 3.49 | 0.00647 | IC50 (MCF7): 5.78 µM; IC50 (SJSA-1): 3.15 µM; IC50 (HL-60): 3.45 µM; IC50 (A549): 2.53 µM; IC50 (MCF-10A): 28.4 µM
18 | CCCCc1ccc(-c2noc([C@@H]3CC4(CC4)CN3C(=O)[C@@H](CC(=O)NO)CC3CCCC3)n2)cc1 | 2.07 | 0.00424 | –
19 | C=C1C[C@@H](C(=O)Nc2ccc(F)cn2)N(C(=O)[C@@H](CC(=O)NO)CC2CCCC2)C1 | > 40 | 0.00715 | –
20 | O=C(C[C@@H](CC1CCCC1)C(=O)N1CC2(CC2)C[C@H]1C(=O)Nc1ccncn1)NO | > 40 | 0.00953 | –
21 | O=C(C[C@@H](CC1CCCC1)C(=O)N1CC2(CC2)C[C@H]1c1nc(-c2cc(F)cc(F)c2F)no1)NO | 3.62 | 0.00708 | –
22 | O=C(C[C@@H](CC1CCCC1)C(=O)N1CC2(CC2)C[C@H]1c1nc(-c2cnccn2)no1)NO | > 40 | 0.0161 | –
23 | O=C(C[C@@H](CC1CCCC1)C(=O)N1CC2(CC2)C[C@H]1C(=O)Nc1ccc(F)cn1)NO | 20.2 | 0.00587 | –
24 | Cn1cc(NC(=O)[C@@H]2CC3(CC3)CN2C(=O)[C@@H](CC(=O)NO)CC2CCCC2)cn1 | > 40 | 0.0302 | –
25 | O=C(C[C@@H](CC1CCCC1)C(=O)N1CC2(CC2)C[C@H]1c1nc(-c2ccccc2)no1)NO | 4.46 | 0.00377 | IC50 (MCF7): 8.64 µM; IC50 (SJSA-1): 3.8 µM; IC50 [2]: > 10 µM; inhibition (Histone deacetylase 1 [3]): -0.95%; inhibition [4]: 1.08%; IC50 (HL-60): 3.58 µM; IC50 (A549): 2.55 µM; IC50 (Histone deacetylase 1 [5]): > 10 µM; IC50 (MCF-10A): 32.3 µM
26 | O=C(C[C@@H](CC1CCCC1)C(=O)N1CC2(CC2)C[C@H]1c1nc(-c2ccc(C3CC3)cc2)no1)NO | 3.47 | 0.00501 | –
27 | Cc1cc(C)cc(C(=O)NOCCCCCC(=O)NO)c1 | – | – | IC50 [2]: 0.012 µM; IC50 (Histone deacetylase 1 [5]): 0.058 µM
28 | Cc1noc([C@@H]2CC3(CC3)CN2C(=O)[C@@H](CC(=O)NO)CC2CCCC2)n1 | > 40 | 0.0293 | –
29 | CCCC[C@H](CC(=O)NO)C(=O)N1CC2(CC2)C[C@H]1C(=O)Nc1ccc(F)cn1 | > 40 | 0.00492 | –
30 | O=C(C[C@@H](CC1CCCC1)C(=O)N1CC2(CC2)C[C@H]1C(=O)Nc1ccccc1)NO | 14.9 | 0.00642 | –
31 | O=C(C[C@@H](CC1CCCC1)C(=O)N1CC2(CC2)C[C@H]1c1nc(-c2ccc(C(F)(F)F)cc2F)no1)NO | 10 | 0.00485 | IC50 (MCF7): 10.6 µM; IC50 (SJSA-1): 8.7 µM; IC50 (HL-60): 4.77 µM; IC50 (A549): 10.3 µM; IC50 (MCF-10A): 29.1 µM
